Experimental data as given in patent publication US10689378B2, “Triazolopyridine compounds and uses thereof” (Novartis AG, priority 2016, dated 2020).
Like-named read-outs stand apart in the source and are kept apart here.

Experiments:
EED (1-441)-His protein = biological target: T1, EED (1-441)-His protein (Homo sapiens, UniProt O75530); assay: EED-H3K27Me3 peptide competition binding assay by AlphaScreen
T1 construct: 30 nM EED (1-441)-His protein
Description: EED-H3K27Me3 Peptide Competition Binding Assay by AlphaScreen (α-Screen)
To assess the compounds' potency in the EED-H3K27Me3 competition binding assay, compounds were serially diluted 3-fold in DMSO to obtain a total of twelve concentrations. Then compounds at each concentration (75 nL of each) were transferred by Mosquito into a 384-well Perkin Elmer ProxiPlate 384 plus plates. 8 uL of solutions containing 30 nM EED (1-441)-His protein and 15 nM biotin-H3K27Me3 (19-33) peptide in the buffer (25 mM HEPES, pH 8, 0.02% Tween-20, 0.5% BSA) were added to the wells and then incubated with compound for 20 min. AlphaScreen detection beads mix was prepared immediately before use by mixing nickel chelate acceptor beads and streptavidin donor beads in a 1:1 ratio (Perkin Elmer, Product No. 6760619C/M/R) into the buffer described above. Then 4 μL of detection beads mix was added to the plate and incubate in the dark at the rt for 1 h. The final concentration of donor and acceptor beads was 10 μg/mL for each. Plates were read on EnVision (PerkinElmer) using the AlphaScreen setting adapted for optimal signal detection with a 615 nm filter, after sample excitation at 680 nm. The emission signal at 615 nm was used to quantify compounds inhibition. AlphaScreen signals were normalized based on the reading coming from the positive (maximum signal control) and negative controls (minimum signal control) to give percentage of activities left. The data were then fit to a dose response equation using the program Helios (Novartis) to get the IC50 values. Helios is a Novartis in-house assay data analysis software using the methods described by Normolle, D. P., Statistics in Medicine, 12:2025-2042 (1993); Formenko, I. et al, Computer Methods and Programs in Biomedicine, 82, 31-37 (2006); Sebaugh, J. L., Pharmaceutical Statistics, 10:128-134 (2011); Kelly, C. et al., Biometrics, 46(4):1071-1085 (1990); and Kahm, M. et al., Journal of Statistical Software, 33 (7): (2010) (grofit: Fitting Biological Growth Curves with R, pages 1-21, available at http://www.jstatsoft.org/).

[1] = test system: H3K27 methylation in G401 cell; assay: ELISA (H3K27 methylation) assay in G401 cells; type: cell-based, human; details: Homo sapiens, G-401, read-out: (c) IC50, ELISA Qualified
Description: Compounds of the present invention were assessed for their ability to inhibit PRC2 activity in a pentameric complex of EZH2, SUZ12, EED, Rbap48 and AEBP in biochemical assays. The ability of compounds of the present invention to inhibit cellular activity of PRC2 was assessed by analysing histone H3 lysine 27 methylation in human cell lines. The ability of compounds of the present invention to inhibit cancers was derived from their ability to modulate activity in human cancer cell lines bearing specific dependence to PRC2 activity to maintain cancerous growth.
ELISA (H3K27 Methylation) Assay
Representative compounds of the present invention were serially and separately diluted 3-fold in DMSO to obtain a total of eight or twelve concentrations. Then the compounds were added to G401 cell cultured in 384-well plate at 1:500 dilution to obtain the highest concentration of 20 μM. The cells were further cultured for 48 h before ELISA procedure.
Histone extraction: Cells, in 384-well plate, were washed with PBS (10×PBS buffer (80 g NaCl (Sigma, S3014), 2 g KCl (Sigma, 60128), 14.4 g Na2HPO4 (Sigma, S5136), 2.4 g KH2PO4 (Sigma, P9791) to 1 L water, pH to 7.4) and lysed with the addition of lysis buffer (0.4N HCl; 45 μL per well). The plate was gently agitated at 4° C. for 30 min. The cell lysate was neutralized with neutralization buffer (0.5 M sodium phosphate dibasic, pH 12.5, 1 mM DTT; 36 μL per well). The plate was agitated to ensure the lysates were well mixed prior to the ELISA protocol.
ELISA protocol: Cell lysates were transferred to the wells of a 384-well plate and the final volume was adjusted to 50 μL per well with PBS. The plate was sealed, centrifuged at 2,000 rpm for 2 min and incubated at 4° C. for about 16 h. The plate was washed with TBST buffer (1×TBS (10×TBS: 24.2 g Tris (Sigma, T6066), 80 g NaCl (Sigma, S3014) to 1 L of water and adjust pH to 7.6 with HCl) with 0.1% Tween-20). Blocking buffer (TBST, 5% BSA; 50 μL per well) was added and the plate was incubated for 1 h at rt. The blocking buffer was removed and primary antibody was added (30 μL per well). The following dilutions were performed with blocking buffer: for anti-H3K27me3 antibody (Cell Signaling Technology, #9733), dilution was 1:1000; for anti-H3K27me2 antibody (Cell Signaling Technology, #9288), dilution was 1:100; for anti-H3 antibody (Abcam, Cat #24834), dilution was 1:1000. The primary antibody was incubated in the plate at rt for 1 h. The wells were washed with TBST and incubated with secondary antibody for 1 h at rt. For secondary antibodies, the following dilutions were carried out with blocking buffer: anti-rabbit antibody (Jackson ImmunoResearch, #111-035-003), dilution was 1:2000; and anti-mouse antibody (Cell signaling technology, #7076), dilution was 1:1000. After 1 h of incubation at rt, the wells were washed with TBST. ECL substrate (Pierce, #34080) was added at 30 μL per well and the plates were centrifuged at 2,000 rpm for 2 min. The signal was read using a PerkinElmer Envision Reader. The H3K27 methylation readouts were normalized using H3 signal and then percentage inhibition was calculated against the samples treated with DMSO. The data were then fit to a dose response curve using the program Helios to get the IC50 values of the test compound.

[2] = read-out: (a) IC50, EED Alphascreen binding Qualified

T1 sequence (O75530 whole entry): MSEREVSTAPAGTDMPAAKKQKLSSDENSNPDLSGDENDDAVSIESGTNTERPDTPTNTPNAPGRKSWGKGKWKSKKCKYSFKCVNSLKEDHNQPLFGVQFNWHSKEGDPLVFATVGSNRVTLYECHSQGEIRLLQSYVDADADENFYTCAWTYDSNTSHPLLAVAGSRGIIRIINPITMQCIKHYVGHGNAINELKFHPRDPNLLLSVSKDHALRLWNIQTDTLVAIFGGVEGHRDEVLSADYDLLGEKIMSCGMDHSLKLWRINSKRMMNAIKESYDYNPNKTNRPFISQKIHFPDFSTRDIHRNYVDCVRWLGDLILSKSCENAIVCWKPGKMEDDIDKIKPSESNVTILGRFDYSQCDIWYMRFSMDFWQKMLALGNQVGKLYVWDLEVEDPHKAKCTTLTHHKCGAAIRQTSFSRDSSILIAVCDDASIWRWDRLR

| SMILES | IC50 (EED (1-441)-His protein; [2]) [nM] | IC50 [1] [nM] | IC50 (EED (1-441)-His protein; EED-H3K27Me3 peptide competition, AlphaScreen, read-out: (a) IC50 EED Alphascreen binding Qualified) [nM] |
| --- | --- | --- | --- |
| COc1cccc(CNc2ccc(-c3ccc(CN(C)C)cc3)c3nncn23)c1 [Example 14, 8-(4-((dimethylamino)methyl)phenyl)-N-(3-methoxybenzyl)-[1,2,4] triazolo[4,3-a]pyridin-5-amine] | 325 | 280 | – |
| CN(C)Cc1ccc(-c2ccc(NCc3ccccc3)n3cnnc23)cc1 [Example 17, N-benzyl-8-(4-((dimethylamino)methyl)phenyl)-[1,2,4]triazolo[4,3-a] pyridin-5-amine] | 234 | 249 | – |
| COc1ccccc1CNc1ccc(-c2ccccc2)c2nncn12 [Example 23, N-(2-methoxybenzyl)-8-phenyl-[1,2,4]triazolo[4,3-a] pyridin-5-amine] | 180 | 521 | – |
| Cc1ccccc1CNc1ccc(-c2ccc(CN(C)C)cc2)c2nncn12 [Example 31, 8-(4-((dimethylamino)methyl)phenyl)-N-(2-methylbenzyl)-[1,2,4]triazolo[4,3-a]pyridin-5-amine] | 394 | 508 | – |
| CN(C)Cc1ccc(-c2ccc(NCc3cccc(F)c3)n3cnnc23)cc1 [Example 35, 8-(4-((dimethylamino)methyl)phenyl)-N-(3-fluorobenzyl)-[1,2,4] triazolo [4,3-a]pyridin-5-amine] | 2570 | 3490 | – |
| CN(C)Cc1ccc(-c2ccc(NCc3ccccc3F)n3cnnc23)cc1 [Example 36, 8-(4-((dimethylamino)methyl)phenyl)-N-(2-fluorobenzyl)-[1,2,4] triazolo [4,3-a]pyridin-5-amine] | 1010 | 937 | – |
| CN(C)Cc1ccc(-c2ccc(NCc3ccc(F)cc3)n3cnnc23)cc1 [Example 37, 8-(4-((dimethylamino)methyl)phenyl)-N-(4-fluorobenzyl)-[1,2,4]triazolo[4,3-a] pyridin-5-amine] | 1520 | 1800 | – |
| COc1ccccc1CNc1ccc(-c2ccccc2C)c2nncn12 [Example 46, N-(2-methoxybenzyl)-8-(o-tolyl)-[1,2,4]triazolo[4,3-a] pyridin-5-amine] | 160 | 529 | – |
| CN(C)Cc1ccc(-c2ccc(NCc3cccnc3)n3cnnc23)cc1 [Example 48, 8-(4-((dimethylamino)methyl)phenyl)-N-(pyridin-3-ylmethyl)-[1,2,4]triazolo[4,3-a]pyridin-5-amine] | 4230 | 2280 | – |
| COc1ccc(F)c(CNc2ccc(-c3ccc(CN(C)C)cc3)c3nncn23)c1 [Example 49, 8-(4-((dimethylamino)methyl)phenyl)-N-(2-fluoro-5-methoxybenzyl)-[1,2,4] triazolo[4,3-a]pyridin-5-amine] | 164 | 140 | – |
| COc1cncc(-c2ccc(NCc3ccccc3OC)n3cnnc23)c1 [Example 51, N-(2-methoxybenzyl)-8-(5-methoxypyridin-3-yl)-[1,2,4] triazolo[4,3-a]pyridin-5-amine] | 127 | 159 | – |
| COc1ccccc1CNc1ccc(-c2ccc(CN3CCCC3=O)cc2)c2nncn12 [Example 55, 1-(4-(5-((2-methoxybenzyl)amino)-[1,2,4]triazolo[4,3-a]pyridin-8-yl)benzyl) pyrrolidin-2-one] | 15.1 | 44.1 | – |
| COc1ccccc1CNc1ccc(-c2cncnc2)c2nncn12 [Example 58, N-(2-methoxybenzyl)-8-(pyrimidin-5-yl)-[1,2,4] triazolo[4,3-a]pyridin-5-amine] | 59.8 | 66.3 | – |
| COc1cc(-c2ccc(NCc3ccccc3OC)n3cnnc23)ccn1 [Example 59, N-(2-methoxybenzyl)-8-(2-methoxypyridin-4-yl)-[1,2,4] triazolo[4,3-a]pyridin-5-amine] | 31.6 | 168 | – |
| COc1ccccc1CNc1ccc(-c2ccc(CN3CCCC3)cc2)c2nncn12 [Example 60, N-(2-methoxybenzyl)-8-(4-(pyrrolidin-1-ylmethyl)phenyl)-[1,2,4]triazolo[4,3-a] pyridin-5-amine] | 40.2 | 56.5 | – |
| COc1ccccc1CNc1ccc(-c2ccc(N3CCOCC3)c(Cl)c2)c2nncn12 [Example 65, 8-(3-chloro-4-morpholinophenyl)-N-(2-methoxybenzyl)-[1,2,4] triazolo[4,3-a]pyridin-5-amine] | 1660 | 11000 | – |
| COc1ccccc1CNc1ccc(-c2ccc(-c3nn[nH]n3)cc2)c2nncn12 [Example 74, 8-(4-(2H-tetrazol-5-yl)phenyl)-N-(2-methoxybenzyl)-[1,2,4]triazolo[4,3-a] pyridin-5-amine] | 320 | 4240 | – |
| COc1ccccc1CNc1ccc(-c2cnc(N3CCN(C)CC3)c(Cl)c2)c2nncn12 [Example 75, 8-(5-chloro-6-(4-methylpiperazin-1-yl)pyridin-3-yl)-N-(2-methoxybenzyl)-[1,2,4] triazolo[4,3-a]pyridin-5-amine] | 132 | 488 | – |
| COc1cccc(F)c1CNc1ccc(-c2ccc(S(=O)(=O)N(C)C)cc2)c2nncn12 [Example 79, 4-(5-((2-fluoro-6-methoxybenzyl)amino)-[1,2,4]triazolo[4,3-a]pyridin-8-yl)-N,N-dimethylbenzene sulfonamide] | 116 | 78.5 | – |
| COc1ccccc1CNc1ccc(-c2ccc(NC(C)=O)cc2)c2nncn12 [Example 80, N-(4-(5-((2-methoxybenzyl)amino)-[1,2,4]triazolo[4,3-a]pyridin-8-yl)phenyl) acetamide] | 224 | 779 | – |
| COc1ccc(F)cc1CNc1ccc(-c2ccc(CN(C)C)cc2)c2nncn12 [Example 81, 8-(4-((dimethylamino)methyl)phenyl)-N-(5-fluoro-2-methoxybenzyl)-[1,2,4]triazolo[4,3-a]pyridin-5-amine] | 387 | 928 | – |
| COc1cc(F)cc(F)c1CNc1ccc(-c2cnc(OC3CC3)nc2C)c2nncn12 [Example 344, 8-(2-cyclopropoxy-4-methylpyrimidin-5-yl)-N-(2,4-difluoro-6-methoxybenzyl)-[1,2,4]triazolo[4,3-a]pyridin-5-amine] | – | – | 25.5 |
